Experimental data from patent US20250154169A1, “COMPOUNDS AND METHODS FOR MODULATING SPLICING” (REMIX THERAPEUTICS INC., priority 2021, published 2025).
Where “and” joins values, the source holds several entries; their conditions need not be identical. Identical values can stand only once. Like-named read-outs stand apart in the source and are kept apart here.

Key:
HTT = assay: Protein abundance, HiBit-assay system (Promega), HTT; assay type: cell-based; details: Table 6; HiBiT-modified K562 cells, 24 hours
Description: (§1) In some embodiments, a compound of Formula (I) or (II) or a pharmaceutically acceptable salt thereof, e.g., as described herein, modulates the expression of a target protein (e.g., HTT or MYB) in a reference cell or sample. In an embodiment, a compound of Formula (I) or (II) or a pharmaceutically acceptable salt thereof, e.g., as described herein, increases the expression of a target protein (e.g., HTT or MYB) in a reference cell or sample. In an embodiment, a compound of Formula (I) or (II) or a pharmaceutically acceptable salt thereof, e.g., as described herein, decreases the expression of a target protein (e.g., HTT or MYB) in a reference cell or sample. The effect of an exemplary compound of Formula (I) or (II) on protein abundance may be measured using a standard assay for measuring protein abundance, such as the HiBit-assay system (Promega). In this assay, percent response for each respective cell line may be as calculated at each compound concentration as follows: % response=100*(S−PC)/(NC−PC). For the normalized response at each concentration, a four-parameter logistical regression may be fit to the data and the response may be interpolated at the 50% value to determine a concentration for protein abundance at 50% (IC50) an untreated control. In an embodiment, a compound of Formula (I) or (II) or a pharmaceutically acceptable salt thereof, e.g., as described herein, has a protein abundance response less than 100 nM. In an embodiment, a compound of Formula (I) or (II) or a pharmaceutically acceptable salt thereof, e.g., as described herein, has a protein abundance response between 100-1000 nM. In an embodiment, a compound of Formula (I) or (II) or a pharmaceutically acceptable salt thereof, e.g., as described herein, has a protein abundance response greater than 1000 nM. In an embodiment, a compound of Formula (I) or (II) or a pharmaceutically acceptable salt thereof, e.g., as described herein, has a protein abundance response greater than 10 uM. In an embodiment, a compound of Formula (I) or (II) or a pharmaceutically acceptable salt thereof, e.g., as described herein, modulates the protein abundance of a target protein by about 1%, 5%, 10%, 15%, 20%, 25%, 30%, 35%, 40%, 45%, 50%, 55%, 60%, 65%, 70%, 75%, 80%, 85%, 90%, 95%, 99% or more, e.g., compared with a reference compound.

MYB = assay: Protein abundance, HiBit-assay system (Promega), MYB; assay type: cell-based; details: Table 6; HiBiT-modified K562 cells, 24 hours
Description: as §1

MYB mRNA = assay: Splicing RT-qPCR assay, MYB canonical (CJ) and alternative (AJ) junction mRNA; assay type: cell-based, human; details: Homo sapiens; for AC50: read-out: MYB AJ (AC50, increase in alternative junction mRNA)
Method in brief: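 A673 or K562 cells were treated 24 h at 37 °C with an 11-point 3-fold compound dilution series (top 10 uM, DMSO ≤0.25%). Lysates went to one-step RT-qPCR measuring canonical (CJ) and alternative-exon (AJ) junction transcripts, normalized to GAPDH, GUSB or PPIA.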

[1] = Tables 4A/4B, canonical junction qPCR panel, read-out: MYB (IC50, decrease in CJ mRNA, gene panel)
[2] = 24 h, A673 or K562 cells, 24 hours compound treatment, RT-qPCR
[3] = 24 h, A673 or K562 cells, 24 hours compound treatment, RT-qPCR, read-out: MYB CJ (IC50, decrease in canonical junction mRNA)

Compound | IC50 (HTT) | IC50 (MYB) | IC50 (MYB mRNA; [1]) | AC50 (MYB mRNA; [2]) | IC50 (MYB mRNA; [3])
Cc1cn2nc(NC(=O)c3ccc(C4CCNCC4)c4cc(C)oc34)cc(C)c2n1 [Compound 118] | 100 to 1000 nM | < 100 nM | 100 to 1000 nM | – | –
Cc1cn2nc(NC(=O)c3ccc(C4CCNCC4)c4ccoc34)cc(C)c2n1 [Compound 119] | 1000 to 10000 nM | 1000 to 10000 nM | 1000 to 10000 nM | 1000 to 10000 nM | 1000 to 10000 nM
Cc1cn2cc(NC(=O)c3ccc(N4CCNCC4)c4nc(C)oc34)cc(F)c2n1 [Compound 140] | 1000 to 10000 nM | 1000 to 10000 nM | 1000 to 10000 nM | – | –
Cc1cn2cc(NC(=O)c3ccc(N4CCNCC4)c4oc(C)nc34)cc(F)c2n1 [Compound 141] | 100 to 1000 nM | 100 to 1000 nM | < 100 nM | < 100 nM | < 100 nM
Cc1cn2cc(NC(=O)c3ccc(N4CCNCC4)c4cc(C)oc34)cc(F)c2n1 [Compound 142] | 100 to 1000 nM | < 100 nM | 100 to 1000 nM | 100 to 1000 nM | 100 to 1000 nM
Cc1cn2cc(NC(=O)c3ccc(N4CCNCC4)c4cn(C)nc34)cc(F)c2n1 [Compound 143, N-{8-fluoro-2-methylimidazo[1,2-a]pyridin-6-yl}-2-methyl-4-(piperazin-1-yl) indazole-7-carboxamide] | < 100 nM | < 100 nM | < 100 nM | – | –
Cc1cn2cc(NC(=O)c3ccc(C4CCNCC4)c4cc(C)oc34)cc(F)c2n1 [Compound 145] | 1000 to 10000 nM | < 100 nM | 100 to 1000 nM | 100 to 1000 nM | 100 to 1000 nM
Cc1cn2nc(NC(=O)c3ccc(N4CCNCC4)c4cc(C)oc34)cc(C)c2n1 [Compound 148] | 1000 to 10000 nM | 1000 to 10000 nM | 1000 to 10000 nM | 1000 to 10000 nM | 1000 to 10000 nM
Cc1cn2cc(NC(=O)c3ccc(C4CCNCC4)c4ccoc34)cc(F)c2n1 [Compound 149] | 1000 to 10000 nM | < 100 nM | 100 to 1000 nM | 100 to 1000 nM | 100 to 1000 nM
Cc1cn2cc(NC(=O)c3ccc(N4CCN(C)CC4)c4cc(C)oc34)cc(F)c2n1 [Compound 189] | > 10000 nM | 100 to 1000 nM | 100 to 1000 nM | 100 to 1000 nM | 100 to 1000 nM
Cc1cn2cc(NC(=O)c3ccc(N4CCNC(C)C4)c4cc(C)oc34)cc(F)c2n1 (centres unmarked) [Compound 190] | 100 to 1000 nM | < 100 nM | < 100 nM | < 100 nM | < 100 nM
Cc1cn2cc(NC(=O)c3ccc(N4CCN(C)C(C)C4)c4cc(C)oc34)cc(F)c2n1 (centres unmarked) [Compound 191] | – | < 100 nM and 100 to 1000 nM | 100 to 1000 nM | 100 to 1000 nM | 100 to 1000 nM
CCC1CN(c2ccc(C(=O)Nc3cc(F)c4nc(C)cn4c3)c3oc(C)cc23)CCN1 (centres unmarked) [Compound 192] | 1000 to 10000 nM | 100 to 1000 nM | 100 to 1000 nM | 100 to 1000 nM | 100 to 1000 nM
Cc1cn2cc(NC(=O)c3ccc(N4CCNC(C)(C)C4)c4cc(C)oc34)cc(F)c2n1 [Compound 193] | 1000 to 10000 nM | 100 to 1000 nM | 100 to 1000 nM | 100 to 1000 nM | 100 to 1000 nM
Cc1cn2cc(NC(=O)c3ccc(N4CCNC5(CC5)C4)c4cc(C)oc34)cc(F)c2n1 [Compound 194] | 1000 to 10000 nM | 100 to 1000 nM | 100 to 1000 nM | – | –
Cc1cn2cc(NC(=O)c3ccc(N4CC(C)(C)NC(C)(C)C4)c4cc(C)oc34)cc(F)c2n1 [Compound 195] | > 10000 nM | 1000 to 10000 nM | 100 to 1000 nM | 1000 to 10000 nM | 100 to 1000 nM
CCNC1CCN(c2ccc(C(=O)Nc3cc(F)c4nc(C)cn4c3)c3oc(C)cc23)CC1 [Compound 196] | 100 to 1000 nM | < 100 nM | 100 to 1000 nM | – | –
Cc1cn2cc(NC(=O)c3ccc(N4CCC(NC(C)(C)C)CC4)c4cc(C)oc34)cc(F)c2n1 [Compound 197] | > 10000 nM | 1000 to 10000 nM | 1000 to 10000 nM | 1000 to 10000 nM | 1000 to 10000 nM
CC1=CC2C(N3CCC(N(C)C)CC3)=CC=C(C(=O)Nc3cc(F)c4nc(C)cn4c3)C2O1 (centres unmarked) [Compound 198] | 1000 to 10000 nM | < 100 nM | < 100 nM | – | –
Cc1cn2cc(NC(=O)c3ccc(N4CCN5CCCC5C4)c4cc(C)oc34)cc(F)c2n1 (centres unmarked) [Compound 199] | 1000 to 10000 nM | < 100 nM | 100 to 1000 nM | 100 to 1000 nM | 100 to 1000 nM
Cc1cn2cc(NC(=O)c3ccc(C4CCNCC4)c4cn(C)nc34)cc(F)c2n1 [Compound 208] | 100 to 1000 nM | < 100 nM | < 100 nM | – | –
Cc1cc2c(N3CCNCC3)ccc(C(=O)Nc3cc(F)c4cn(C)nc4c3)c2o1 [Compound 217] | > 10000 nM | > 10000 nM | > 10000 nM | > 10000 nM | > 10000 nM
CCn1cc2c(N3CC[C@@H](NC)C3)ccc(C(=O)Nc3cc(Cl)c4nc(C)cn4c3)c2n1 [Compound 556, N-{8-chloro-2-methylimidazo[1,2-a]pyridin-6-yl}-2-ethyl-4-[(3R)-3-(methylamino)pyrrolidin-1-yl]indazole-7-carboxamide] | 1000 to 10000 nM | 1000 to 10000 nM | – | > 10000 nM | 1000 to 10000 nM
CCn1cc2c(N3CCC(N)(CC)CC3)cc(F)c(C(=O)Nc3cc(F)c4nc(C)cn4c3)c2n1 [Compound 557, 4-(4-amino-4-ethylpiperidin-1-yl)-2-ethyl-6-fluoro-N-{8-fluoro-2-methylimidazo[1,2-a]pyridin-6-yl}indazole-7-carboxamide] | 100 to 1000 nM | < 100 nM | – | < 100 nM | < 100 nM
CCn1cc2c(N3CCC(N[C@H]4C[C@@H](O)C4)CC3)ccc(C(=O)Nc3cc(F)c4nc(C)cn4c3)c2n1 [Compound 559, 2-ethyl-N-{8-fluoro-2-methylimidazo[1,2-a]pyridin-6-yl}-4-(4-{[(1s,3s)-3-hydroxycyclobutyl]amino}piperidin-1-yl) indazole-7-carboxamide] | 100 to 1000 nM | < 100 nM | – | < 100 nM | < 100 nM
